Assay [1] has as its target T1, ATP-sensitive inward rectifier potassium channel 1 (Homo sapiens) (UniProt P48048).
T1 sequence (whole entry): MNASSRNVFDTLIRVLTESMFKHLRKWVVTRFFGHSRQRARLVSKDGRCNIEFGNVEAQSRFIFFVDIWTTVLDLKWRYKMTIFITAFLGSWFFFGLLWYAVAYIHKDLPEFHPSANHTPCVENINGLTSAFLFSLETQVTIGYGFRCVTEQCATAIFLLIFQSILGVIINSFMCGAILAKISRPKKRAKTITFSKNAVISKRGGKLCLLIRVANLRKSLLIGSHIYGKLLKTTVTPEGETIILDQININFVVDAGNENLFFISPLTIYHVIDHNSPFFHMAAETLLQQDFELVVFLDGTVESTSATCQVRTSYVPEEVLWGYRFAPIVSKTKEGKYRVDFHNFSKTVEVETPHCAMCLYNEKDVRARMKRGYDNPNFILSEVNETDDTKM
In words: Inhibition of human Kir1.1 expressed in HEK293 cells by thallium flux assay. The class given is cell-based.

Assay [2] has as its target T1, ATP-sensitive inward rectifier potassium channel 1 (Homo sapiens). In words: Inhibition of human Kir1.1 expressed in CHO cells by whole cell voltage clamp assay. The class given is cell-based.

For the compound `Cc1c([C@@H]2CN3CCN(C(=O)C4CCc5nc(-n6cnnn6)ccc54)C[C@H]3CO2)csc1C#N` (stereo not given in full), the INH in assay [1] turned out to be 0.54 µM; in assay [2] it was 0.06 µM. Regarding `N#Cc1c(F)ccc([C@@H]2CN3CCN(C(=O)C4CCc5cc(-n6cnnn6)ncc54)C[C@H]3CO2)c1F` (stereo not given in full), the INH in assay [1] was determined as 0.16 µM; in assay [2], 0.04 µM. The corresponding values for `N#Cc1c(F)ccc([C@@H]2CN3CCN(C(=O)C4CCc5nc(-n6cnnn6)ncc54)C[C@@H]3CO2)c1Cl` (stereo not given in full) are 0.17 µM and 0.06 µM. As for `O=C1OCc2cc([C@H]3CN4CCN(C(=O)C5CCc6cc(-n7cnnn7)ncc65)C[C@H]4CO3)ccc21` (stereo not given in full), the INH in assay [2] stood at 0.06 µM. In the case of `Cc1c([C@H]2CN3CCN(C(=O)C4CCc5nc(-n6cnnn6)ccc54)C[C@H]3CN2)ccc(F)c1C#N` (stereo not given in full), the values for the INH in assay [1] and in assay [2] were 0.16 µM and 0.09 µM, respectively. The matching figures for `Cc1c([C@@H]2CN3CCN(C(=O)C4CCc5nc(-n6cnnn6)ccc54)C[C@H]3CO2)ccc(F)c1C#N` (stereo not given in full): 0.14 µM and 0.08 µM. For `O=C1OCc2cc([C@@H]3CN4CCN(C(=O)C5CCc6nc(-n7cnnn7)ccc65)C[C@H]4CO3)ccc21` (stereo not given in full), the INH in assay [1] was found to be 0.11 µM; in assay [2], 0.09 µM.

With `Cc1c([C@H]2CN3CCN(C(=O)C4CCc5cc(-n6cnnn6)ncc54)C[C@H]3CN2)ccc(F)c1C#N` (stereo not given in full), the values for the INH in assay [1] and in assay [2] were 0.18 µM and 0.1 µM, respectively.
